In patent US7732444B2, “2-(amino-substituted)-4-aryl pyrimidines and related compounds useful for treating inflammatory diseases” (Millennium Pharmaceuticals, Inc., priority 2004, dated 2010):

Each compound was assayed against T1, full length PKC θ (Homo sapiens, UniProt Q04759) (assay: PKC-theta isoform inhibition assay (HTRF, 384 well plate)). Conditions: full length PKC θ at 27 pM, peptide substrate 300 nM + 3 μM ATP, HTRF readout.
T1 construct: 15 μL of full length PKC θ (Panvera Corporation); purchased Panvera Corporation
T1 sequence (Q04759 whole entry, canonical isoform): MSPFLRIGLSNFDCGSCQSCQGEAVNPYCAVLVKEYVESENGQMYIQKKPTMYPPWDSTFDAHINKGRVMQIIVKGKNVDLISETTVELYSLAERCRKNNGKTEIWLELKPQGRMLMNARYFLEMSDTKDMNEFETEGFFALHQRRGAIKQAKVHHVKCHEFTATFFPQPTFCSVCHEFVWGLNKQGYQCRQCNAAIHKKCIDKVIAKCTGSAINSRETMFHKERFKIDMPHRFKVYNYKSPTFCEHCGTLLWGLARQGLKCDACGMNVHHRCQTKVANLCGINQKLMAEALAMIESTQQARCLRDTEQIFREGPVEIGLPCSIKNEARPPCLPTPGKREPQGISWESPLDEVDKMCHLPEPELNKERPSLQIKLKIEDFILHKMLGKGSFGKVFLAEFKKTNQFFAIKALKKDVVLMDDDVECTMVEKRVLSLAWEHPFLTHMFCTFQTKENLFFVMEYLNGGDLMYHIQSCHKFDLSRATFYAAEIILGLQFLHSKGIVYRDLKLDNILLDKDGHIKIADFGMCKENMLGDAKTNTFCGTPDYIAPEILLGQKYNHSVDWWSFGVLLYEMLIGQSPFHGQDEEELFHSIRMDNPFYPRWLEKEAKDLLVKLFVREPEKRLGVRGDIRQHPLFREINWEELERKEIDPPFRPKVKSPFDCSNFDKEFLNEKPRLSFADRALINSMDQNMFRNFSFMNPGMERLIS
Format: biochemical
Protocol: An in vitro assay for detecting and measuring inhibition activity against PKC-theta isoform by candidate pharmacological agents is useful for evaluating and selecting a compound that modulates PKC-theta isoform. An IC50 value can be calculated after running the assay. Following is an assay protocol for measuring PKC-theta isoform.
Per well of a 384 well plate, compounds at various concentrations in 5 μL of 20% DMSO were pre-incubated for about 30 minutes at about 25° C. with 15 μL of full length PKC θ (Panvera Corporation) at 27 pM in an assay buffer (25 mM Hepes, pH 7.5, 5 mM DTT, 10 mM MgCl2, 10 mM 2-glycerophosphate, 12.5 μg/mL 1,2-dioleoyl-rac-glycerol, 10 μg/mL L-α-phosphatidyl-L-serine, 0.1% Bovine Serum Albumin). 10 μL of peptide substrate (biotin-(CH2)6— RFARKGSLRQKNV —CONH2) at 300 nM+3 μM ATP were added to each well and incubated for about 1 hour before quenching with 10 μL of 250 mM EDTA. 40 μL of detection buffer (25 mM Hepes, pH 7.5, 100 mM KF, 0.1% Bovine Serum Albumin, 0.01% Tween20) containing 2 nM anti-phospho antibody 2B9 (MBL International) labeled with europium cryptate (Cis-Bio International) and 0.0064 μg/mL streptavidin-allophycocyanin (Prozyme) was added to each well and incubated for two hours. Signal was then read on a Discovery HTRF (Packard).
For `CCN(CCCN)Cc1cccc(-c2ccnc(NCCc3ccc(O)cc3)n2)c1` [Compound 1, (4-{2-[4-(3-{[(3-Amino-propyl)-ethyl-amino]-methyl}-phenyl)-pyrimidin-2-ylamino]-ethyl}-phenol)], the IC50 was < 100 nM.
In the case of `CS(=O)(=O)N(CCCN)Cc1cccc(-c2ccnc(NCCc3ccc(O)cc3)n2)c1` [Compound 2, N-(3-Amino-propyl)-N-(3-{2-[2-(4-hydroxy-phenyl)-ethylamino]-pyrimidin-4-yl}-benzyl)-methanesulfonamide], the IC50 is reported as < 100 nM.
For `CS(=O)(=O)N(CCCN)Cc1cccc(-c2ccnc(NCCc3ccc(N)cc3)n2)c1` [Compound 5, N-(3-{2-[2-(4-Amino-phenyl)-ethylamino]-pyrimidin-4-yl}-benzyl)-N-(3-amino-propyl)-methanesulfonamide], the IC50 was < 100 nM.
With `CS(=O)(=O)N(CCCN)Cc1cccc(-c2ccnc(NCCc3ccc(O)c(O)c3)n2)c1` [Compound 6, N-(3-Amino-propyl)-N-(3-{2-[2-(3,4-dihydroxy-phenyl)-ethylamino]-pyrimidin-4-yl}-benzyl)-methanesulfonamide] the IC50 was < 100 nM.
In the case of `COc1ccc(CCNc2nccc(-c3cccc(CN(CCCN)S(C)(=O)=O)c3)n2)cc1O` [Compound 8, N-(3-Amino-propyl)-N-(3-{2-[2-(3-hydroxy-4-methoxy-phenyl)-ethylamino]-pyrimidin-4-yl}-benzyl)-methanesulfonamide], the IC50 is reported as < 100 nM.
For `CS(=O)(=O)N(CCCN)Cc1cccc(-c2ccnc(NCCc3ccc(O)c([N+](=O)[O-])c3)n2)c1` [Compound 22, N-(3-Amino-propyl)-N-(3-{2-[2-(4-hydroxy-3-nitro-phenyl)-ethylamino]-pyrimidin-4-yl}-benzyl)-methanesulfonamide], the IC50 was < 100 nM.
In the case of `CS(=O)(=O)N(CCCN)Cc1cccc(-c2ccnc(NCCc3ccc(O)c(Cl)c3)n2)c1` [Compound 24, N-(3-Amino-propyl)-N-(3-{2-[2-(3-chloro-4-hydroxy-phenyl)-ethylamino]-pyrimidin-4-yl}-benzyl)-methanesulfonamide], the IC50 is reported as < 100 nM.
For `CS(=O)(=O)N(CCCN)Cc1cccc(-c2ccnc(NCCc3cccc(O)c3)n2)c1` [Compound 26, N-(3-Amino-propyl)-N-(3-{2-[2-(3-hydroxy-phenyl)-ethylamino]-pyrimidin-4-yl}-benzyl)-methanesulfonamide], the IC50 was < 100 nM.
`CS(=O)(=O)N(CCCN)Cc1cccc(-c2ccnc(NCCc3cc(Cl)c(O)c(Cl)c3)n2)c1` [Compound 29, N-(3-Amino-propyl)-N-(3-{2-[2-(3,5-dichloro-4-hydroxy-phenyl)-ethylamino]-pyrimidin-4-yl}-benzyl)-methanesulfonamide] was tested, and the IC50 was < 100 nM.
`CS(=O)(=O)N(CCCN)Cc1cccc(-c2ccnc(NCCc3ccc(O)c(Br)c3)n2)c1` [Compound 36, N-(3-Amino-propyl)-N-(3-{2-[2-(3-bromo-4-hydroxy-phenyl)-ethylamino]-pyrimidin-4-yl}-benzyl)-methanesulfonamide] was tested, and the IC50 was < 100 nM.
With `Oc1ccc(CCNc2nccc(-c3cccc(NC4CCNCC4)c3)n2)cc1` [Compound 38, 4-(2-{4-[3-(Piperidin-4-ylamino)-phenyl]-pyrimidin-2-ylamino}-ethyl)-phenol] the IC50 was < 100 nM.
In the case of `COc1cc(CCNc2nccc(-c3cccc(NC4CCNCC4)c3)n2)ccc1O` [Compound 40, 2-Methoxy-4-(2-{4-[3-(piperidin-4-ylamino)-phenyl]-pyrimidin-2-ylamino}-ethyl)-phenol], the IC50 is reported as < 100 nM.
For `Oc1ccc(CCNc2nccc(-c3cccc(NC4CCNCC4)c3)n2)cc1Cl` [Compound 45, 2-Chloro-4-(2-{4-[3-(piperidin-4-ylamino)-phenyl]-pyrimidin-2-ylamino}-ethyl)-phenol], the IC50 was < 100 nM.
`Oc1c(Cl)cc(CCNc2nccc(-c3cccc(NC4CCNCC4)c3)n2)cc1Cl` [Compound 48, 2,6-Dichloro-4-(2-{4-[3-(piperidin-4-ylamino)-phenyl]-pyrimidin-2-ylamino}-ethyl)-phenol] was tested, and the IC50 was < 100 nM.
`Oc1cccc(CCNc2nccc(-c3cccc(NC4CCNCC4)c3)n2)c1` [Compound 49, 3-(2-{4-[3-(Piperidin-4-ylamino)-phenyl]-pyrimidin-2-ylamino}-ethyl)-phenol] was tested, and the IC50 was < 100 nM.
